According to patent publication US9150603B2, “2′-cyano substituted nucleoside derivatives and methods of use thereof useful for the treatment of viral diseases” (priority 2011, dated 2015):

What was measured:
[1] = system: HCV replicon cells (1b); test: Cell-based HCV replicon assay (replicon RNA level by Taqman real time PCR); conditions: HCV 1b replicon, cells harvested on day 3
Description: To measure cell-based anti-HCV activity of selected compounds of the present invention, replicon cells were seeded at 5000 cells/well in 96-well collagen I-coated Nunc plates in the presence of the test compound. […]. Cells were harvested on day 3 by the addition of 1× cell lysis buffer (Ambion cat #8721). The replicon RNA level was measured using real time PCR (Taqman assay). The amplicon was located in 5B. The PCR primers were: 5B.2F, […] (SEQ ID. NO. 1); 5B.2R, […] (SEQ ID. NO. 2); the probe sequence was FAM-labeled […] (SEQ ID. NO. 3). GAPDH RNA was used as endogenous control and was amplified in the same reaction as NSSB (multiplex PCR) using primers and VIC-labeled probe recommended by the manufacturer (PE Applied Biosystem). The real-time RT-PCR reactions were run on ABI PRISM 7900HT Sequence Detection System using the following program: 48° C. for 30 minutes, 95° C. for 10 minutes, 40 cycles of 95° C. for 15 sec, 60° C. for 1 minute. The ACT values (CT5B−CTGAPDH) were plotted against the concentration of test compound and fitted to the sigmoid dose-response model using XLfit4 (MDL). […]; Alternatively, to quantitate the absolute amount of replicon RNA, a standard curve was established by including serially diluted T7 transcripts of replicon RNA in the Taqman assay. All Taqman reagents were from […] Applied Biosystems. Such an assay procedure was described in detail in e.g. Malcolm et al., Antimicrobial Agents and Chemotherapy 50: 1013-1020 (2006).

[2] = system: replicon cells; test: Cytotoxicity in replicon cells (MTS assay); conditions: CC50, MTS assay, three days post dosing
[3] = system: replicon cells (1b-Con1); test: Replicon activity assay (1b-Con1 replicon cells, real-time RT-PCR); format: cell-based, HCV; conditions: three days post-dosing
[4] = biological target: T1, HCV NS5B RNA-dependent RNA polymerase (1b-BKΔ55) (Hepatitis C virus genotype 1b, UniProt P26663); test: Inhibition of HCV NS5B polymerase by nucleoside triphosphate analogs (radiolabeled nucleotide incorporation assay); format: biochemical
T1 construct: 5 nM NS5B (1b-BKΔ55) enzyme

[5] = system: Replicon (1a); test: microbe, parasite or virus in culture; format: cell-based, HCV; conditions: Hepatitis C virus; 1a replicon, marked (1a) in the cell

T1 sequence (P26663 2420-2955 limits assumed, stated change not applied): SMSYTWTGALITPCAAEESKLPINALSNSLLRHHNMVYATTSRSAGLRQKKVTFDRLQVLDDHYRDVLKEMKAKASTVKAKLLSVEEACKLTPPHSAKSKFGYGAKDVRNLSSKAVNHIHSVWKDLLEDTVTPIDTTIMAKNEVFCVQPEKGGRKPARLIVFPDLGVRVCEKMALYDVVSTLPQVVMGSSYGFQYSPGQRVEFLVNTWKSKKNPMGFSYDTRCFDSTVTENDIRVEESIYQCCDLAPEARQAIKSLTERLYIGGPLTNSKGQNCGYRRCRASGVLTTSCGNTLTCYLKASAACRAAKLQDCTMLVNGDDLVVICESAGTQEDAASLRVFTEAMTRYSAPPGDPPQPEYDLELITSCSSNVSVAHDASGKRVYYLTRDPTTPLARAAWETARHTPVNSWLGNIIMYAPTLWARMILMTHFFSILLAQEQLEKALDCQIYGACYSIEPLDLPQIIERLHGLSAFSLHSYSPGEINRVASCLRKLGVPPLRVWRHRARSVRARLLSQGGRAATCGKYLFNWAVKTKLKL

C[C@@]1(C#N)[C@H](O)[C@@H](CO)O[C@H]1n1ccc(=O)[nH]c1=O [Compound 2, 1-[(2R,3R,4S,5R)-3-cyano-4-hydroxy-5-(hydroxymethyl)-3-methyloxolan-2-yl]-1,2,3,4-tetrahydropyrimidine-2,4-dione]
EC50 [1]: 12.6 µM

C[C@H](NP(=O)(OC[C@H]1O[C@@H](n2ccc(=O)[nH]c2=O)[C@](C)(C#N)[C@@H]1O)Oc1ccccc1)C(=O)O[C@H](C)c1ccccc1 (stereo partly shown)
Cytotoxicity [2]: >100 µM | EC50 ([3]; Hepatitis C virus, 72 h): 34 µM

CC(C)OP1(=O)OC[C@H]2O[C@@H](n3ccc(=O)[nH]c3=O)[C@](C)(C#N)[C@@H]2O1 (stereo partly shown)
Cytotoxicity [2]: >100 µM | EC50 ([3]; Hepatitis C virus, 72 h): 1.3 µM

CCC(NP(=O)(OC[C@H]1O[C@@H](n2cnc3c(OC)nc(N)nc32)[C@](C)(C#N)[C@@H]1O)Oc1ccccc1)C(=O)OC(C)C (stereo partly shown)
Cytotoxicity [2]: >100 µM | EC50 ([3]; Hepatitis C virus, 72 h): 2.2 µM

C[C@@]1(C#N)[C@H](O)[C@@H](COP(=O)(O)OP(=O)(O)OP(=O)(O)O)O[C@H]1n1ccc(N)nc1=O [Compound 29]
IC50 [4]: 0.5 µM

CCOc1nc(N)nc2c1ncn2[C@@H]1O[C@@H]2COP(=O)(OC(C)C)O[C@H]2[C@@]1(C)C#N (stereo partly shown) [Compound 28]
EC50 ([1]; Hepatitis C virus, 72 h): 2.7 µM

CCOc1nc(NC(C)=O)nc2c1ncn2[C@@H]1O[C@H](CO)[C@@H](O)[C@@]1(C)C#N [Compound 4]
EC50 ([1]; Hepatitis C virus, 72 h): 100 µM

C[C@@]1(C#N)[C@@H]2OP(=O)(OC3CCC3)OC[C@H]2O[C@H]1n1ccc(N)nc1=O (stereo partly shown) [Compound 27]
EC50 ([1]; Hepatitis C virus, 72 h): > 100 µM

COC(=O)[C@H](C)NP(=O)(OC[C@H]1O[C@@H](n2ccc(N)nc2=O)[C@](C)(C#N)[C@@H]1O)Oc1ccccc1 (stereo partly shown) [Compound 21]
EC50 ([1]; Hepatitis C virus, 72 h): 25 µM

CCOC(=O)[C@H](C)NP(=O)(OC[C@H]1O[C@@H](n2ccc(=O)[nH]c2=O)[C@](C)(C#N)[C@@H]1O)Oc1ccc(Cl)cc1 (stereo partly shown) [Compound 19]
EC50 ([1]; Hepatitis C virus, 72 h): 15 µM

CC(C)OC(=O)[C@H](C)NP(=O)(OC[C@H]1O[C@@H](n2ccc(=O)[nH]c2=O)[C@](C)(C#N)[C@@H]1O)Oc1ccccc1Cl (stereo partly shown) [Compound 30]
EC50 ([1]; Hepatitis C virus, 72 h): 571 µM

CCCCOC(=O)[C@H](C)NP(=O)(OC[C@H]1O[C@@H](n2cnc3c(OCC)nc(N)nc32)[C@](C)(C#N)[C@@H]1O)Oc1ccccc1 (stereo partly shown) [Compound 13]
EC50 ([1]; Hepatitis C virus, 72 h): 1.5 µM

CC(C)COC(=O)[C@H](C)NP(=O)(OC[C@H]1O[C@@H](n2ccc(=O)[nH]c2=O)[C@](C)(C#N)[C@@H]1O)Oc1ccccc1 (stereo partly shown) [drawing 352]
Cytotoxicity [2]: >100 µM | EC50 [3]: 1.4 µM

CC(C)OC(=O)[C@H](C)NP(=O)(OC[C@H]1O[C@@H](n2ccc(N)nc2=O)[C@](C)(C#N)[C@@H]1O)Oc1ccccc1 (stereo partly shown) [drawing 359]
Cytotoxicity [2]: >100 µM | EC50 ([3]; Hepatitis C virus, 72 h): 5.2 µM

COC(=O)[C@H](C)NP(=O)(OC[C@H]1O[C@@H](n2ccc(=O)[nH]c2=O)[C@](C)(C#N)[C@@H]1O)Oc1ccc(Cl)cc1 (stereo partly shown) [Compound 17]
EC50 ([1]; Hepatitis C virus, 72 h): 13 µM

CCOP1(=O)OC[C@H]2O[C@@H](n3ccc(N)nc3=O)[C@](C)(C#N)[C@@H]2O1 (stereo partly shown) [Compound 25]
EC50 ([1]; Hepatitis C virus, 72 h): > 100 µM

CC(C)OP1(=O)OC[C@H]2O[C@@H](n3ccc(N)nc3=O)[C@](C)(C#N)[C@@H]2O1 (stereo partly shown) [Compound 24]
EC50 [1]: 7.9 µM

CC(C)OP1(=O)OC[C@H]2O[C@@H](n3ccc(N)nc3=O)[C@](C)(C#N)[C@@H]2O1 (stereo partly shown) [Compound 23]
EC50 ([1]; Hepatitis C virus, 72 h): 6.7 µM

CCCCOC(=O)[C@H](C)NP(=O)(OC[C@H]1O[C@@H](n2ccc(=O)[nH]c2=O)[C@](C)(C#N)[C@@H]1O)Oc1cccc2ccccc12 (stereo partly shown) [Compound 18]
EC50 ([1]; Hepatitis C virus, 72 h): 1 µM

CC(=O)Nc1ccn([C@@H]2O[C@H](CO)[C@@H](O)[C@@]2(C)C#N)c(=O)n1 [Compound 1]
EC50 ([1]; Hepatitis C virus, 72 h): 14 µM

CC(C)COC(=O)[C@H](C)NP(=O)(OC[C@H]1O[C@@H](n2ccc(=O)[nH]c2=O)[C@](C)(C#N)[C@@H]1O)Oc1ccccc1 (stereo partly shown) [drawing 360]
Cytotoxicity [2]: >100 µM | EC50 ([3]; Hepatitis C virus, 72 h): 1.3 µM

CCOc1nc(N)nc2c1ncn2[C@@H]1O[C@H](CO)[C@@H](O)[C@@]1(C)C#N [Compound 5]
EC50 ([1]; Hepatitis C virus, 72 h): > 100 µM

COC(=O)[C@H](C)NP(=O)(OC[C@H]1O[C@@H](n2ccc(=O)[nH]c2=O)[C@](C)(C#N)[C@@H]1O)Oc1ccccc1 (stereo partly shown) [Compound 14]
EC50 ([1]; Hepatitis C virus, 72 h): 11 µM

COc1nc(N)nc2c1ncn2[C@@H]1O[C@H](COP(=O)(N[C@@H](C)C(=O)OC(C)C)Oc2ccccc2)[C@@H](O)[C@@]1(C)C#N (stereo partly shown)
Cytotoxicity [2]: >100 µM | EC50 ([3]; Hepatitis C virus, 72 h): 2.2 µM

CCOc1nc(N)nc2c1ncn2[C@@H]1O[C@H](COP(=O)(N[C@@H](C)C(=O)OCC(C)(C)C)Oc2ccccc2)[C@@H](O)[C@@]1(C)C#N (stereo partly shown) [Compound 9]
EC50 ([1]; Hepatitis C virus, 72 h): 0.7 µM

CCOc1nc(N)nc2c1ncn2[C@@H]1O[C@H](COP(=O)(N[C@@H](C)C(=O)OC)Oc2ccccc2)[C@@H](O)[C@@]1(C)C#N (stereo partly shown) [Compound 6]
EC50 ([1]; Hepatitis C virus, 72 h): 1.4 µM

C[C@H](NP(=O)(OC[C@H]1O[C@@H](n2ccc(=O)[nH]c2=O)[C@](C)(C#N)[C@@H]1O)Oc1ccccc1)C(=O)OCC(C)(C)C (stereo partly shown) [Compound 15]
EC50 ([1]; Hepatitis C virus, 72 h): 5 µM

CCOc1nc(N)nc2c1ncn2[C@@H]1O[C@H](COP(=O)(N[C@@H](C)C(=O)OC(C)C)Oc2ccccc2)[C@@H](O)[C@@]1(C)C#N (stereo partly shown) [Compound 10]
EC50 ([1]; Hepatitis C virus, 72 h): 15 µM

CC(C)OC(=O)[C@H](C)NP(=O)(OC[C@H]1O[C@@H](n2ccc(N)nc2=O)[C@](C)(C#N)[C@@H]1O)Oc1ccccc1 (stereo partly shown) [drawing 363]
Cytotoxicity [2]: >100 µM | EC50 [5]: 0.9 µM

C[C@@]1(C#N)[C@@H]2OP(=O)(Oc3ccccc3)OC[C@H]2O[C@H]1n1ccc(N)nc1=O (stereo partly shown) [Compound 26]
EC50 ([1]; Hepatitis C virus, 72 h): 62 µM

CCOC(=O)[C@H](C)NP(=O)(OC[C@H]1O[C@@H](n2ccc(=O)[nH]c2=O)[C@](C)(C#N)[C@@H]1O)Oc1ccccc1 (stereo partly shown) [Compound 16]
EC50 ([1]; Hepatitis C virus, 72 h): 51 µM

CCCCOC(=O)[C@H](C)NP(=O)(OC[C@H]1O[C@@H](n2cnc3c(OCC)nc(N)nc32)[C@](C)(C#N)[C@@H]1O)Oc1cccc2ccccc12 (stereo partly shown) [Compound 7]
EC50 ([1]; Hepatitis C virus, 72 h): 1 µM

CCCCOC(=O)[C@H](C)NP(=O)(OC[C@H]1O[C@@H](n2ccc(=O)[nH]c2=O)[C@](C)(C#N)[C@@H]1O)Oc1cccc2ccccc12 (stereo partly shown) [drawing 354]
Cytotoxicity [2]: >100 µM | EC50 ([3]; Hepatitis C virus, 72 h): 2.7 µM

CCCCOC(=O)[C@H](C)NP(=O)(OC[C@H]1O[C@@H](n2ccc(N)nc2=O)[C@](C)(C#N)[C@@H]1O)Oc1cccc2ccccc12 (stereo partly shown) [Compound 20]
EC50 ([1]; Hepatitis C virus, 72 h): 16 µM

CCOc1nc(N)nc2c1ncn2[C@@H]1O[C@@H]2COP(=O)(OC3CCC3)O[C@H]2[C@@]1(C)C#N (stereo partly shown)
Cytotoxicity [2]: >100 µM | EC50 ([3]; Hepatitis C virus, 72 h): 1.2 µM

CC(C)COC(=O)[C@H](C)NP(=O)(OC[C@H]1O[C@@H](n2ccc(N)nc2=O)[C@](C)(C#N)[C@@H]1O)Oc1ccccc1 (stereo partly shown)
Cytotoxicity [2]: 92 µM | EC50 ([3]; Hepatitis C virus, 72 h): 0.4 µM

CCOC(=O)[C@H](C)NP(=O)(OC[C@H]1O[C@@H](n2cnc3c(OCC)nc(N)nc32)[C@](C)(C#N)[C@@H]1O)Oc1ccc(Cl)cc1 (stereo partly shown) [Compound 12]
EC50 ([1]; Hepatitis C virus, 72 h): 1.7 µM

CCOC(=O)[C@H](C)NP(=O)(OC[C@H]1O[C@@H](n2cnc3c(OCC)nc(N)nc32)[C@](C)(C#N)[C@@H]1O)Oc1ccccc1 (stereo partly shown) [Compound 8]
EC50 ([1]; Hepatitis C virus, 72 h): 11.7 µM

C[C@H](NP(=O)(OC[C@H]1O[C@@H](n2ccc(=O)[nH]c2=O)[C@](C)(C#N)[C@@H]1O)Oc1ccccc1)C(=O)OC1CCCCC1 (stereo partly shown)
EC50 ([3]; Hepatitis C virus, 72 h): 2.4 µM

CC(C)OC(=O)[C@H](C)NP(=O)(OC[C@H]1O[C@@H](n2ccc(=O)[nH]c2=O)[C@](C)(C#N)[C@@H]1O)Oc1ccccc1 (stereo partly shown)
Cytotoxicity [2]: >100 µM | EC50 ([3]; Hepatitis C virus, 72 h): 8.3 µM

C[C@@]1(C#N)[C@H](O)[C@@H](CO)O[C@H]1n1ccc(=O)[nH]c1=O [Compound 3]
EC50 [1]: > 66 µM

CCCOC(=O)[C@H](C)NP(=O)(OC[C@H]1O[C@@H](n2cnc3c(OC)nc(N)nc32)[C@](C)(C#N)[C@@H]1O)Oc1ccccc1 (stereo partly shown)
EC50 ([3]; Hepatitis C virus, 72 h): 2.1 µM

COc1nc(N)nc2c1ncn2[C@@H]1O[C@H](COP(=O)(N[C@@H](C)C(=O)OC(C)C)Oc2ccccc2OC(C)=O)[C@@H](O)[C@@]1(C)C#N (stereo partly shown)
Cytotoxicity [2]: 15 µM | EC50 ([3]; Hepatitis C virus, 72 h): 8.9 µM

C[C@H](NP(=O)(OC[C@H]1O[C@@H](n2ccc(N)nc2=O)[C@](C)(C#N)[C@@H]1O)Oc1ccccc1)C(=O)OCC(C)(C)C (stereo partly shown) [Compound 22]
EC50 ([1]; Hepatitis C virus, 72 h): 18 µM

CCOC(=O)[C@H](C)NP(=O)(OC[C@H]1O[C@@H](n2cnc3c(OCC)nc(N)nc32)[C@](C)(C#N)[C@@H]1O)Oc1ccc(F)cc1 (stereo partly shown) [Compound 11]
EC50 ([1]; Hepatitis C virus, 72 h): 17 µM
